# Results as given in patent publication US20190240210A1, “Treatment Method by Combined Use of MDM2 Inhibitor and DNA Methyltransferase Inhibitor” (DAIICHI SANKYO COMPANY, LIMITED, priority 2016, published 2019).
# Columns and labels:
# [1] = test system: human acute myeloid leukemia cell line MOLM-13; assay: In vivo effect of combined use of Compound A and azacitidine on subcutaneous MOLM-13 tumors in NOD-SCID mice (Test Example 1); conditions: for TGI (%): 17 days after tumor inoculation
# Method: (§1) Human acute myeloid leukemia cell line MOLM-13 cells were suspended to 5×10^7 cells/mL using phosphate-buffered saline. 0.1 mL of the prepared cell suspension was subcutaneously transplanted to each NOD-SCID mouse (male, 6 weeks old). […] The major axis (mm) and minor axis (mm) of tumor were measured over time using an electronic digital caliper. […] In addition, the results of the last body weight measurement were used in dose calculation. […] A: Average tumor volume of the compound-administered group on the date of assessment (*) B: Average tumor volume of the untreated control group on the date of assessment (*) *: The tumor volume was calculated according to ½×[Major axis of tumor]×[Minor axis of tumor]×[Minor axis of tumor].
# [2] = Body weight change of MOLM-13 tumor-bearing NOD-SCID mice, Compound A and azacitidine (Test Example 1); type: in vivo, mouse
# Method: (§2) Human acute myeloid leukemia cell line MOLM-13 cells were suspended to 5×10^7 cells/mL using phosphate-buffered saline. 0.1 mL of the prepared cell suspension was subcutaneously transplanted to each NOD-SCID mouse (male, 6 weeks old). On 6 days after the tumor inoculation, after confirmation that the average tumor volume exceeded 100 mm^3, the mice were grouped on the basis of their tumor volume values. 25 mg/kg or 50 mg/kg Compound A was orally administered by forced administration to the mice. 2.5 mg/kg or 4 mg/kg azacitidine was intravenously administered to the tails of the mice. For a combined use group, 25 mg/kg or 50 mg/kg Compound A and 2.5 mg/kg or 4 mg/kg azacitidine were administered sequentially. The administration of Compound A was performed once a day for 5 consecutive days (6 to 10 days after the tumor inoculation) from the date of grouping (6 days after the tumor inoculation), and after a 2-day drug holiday, performed once a day for 4 consecutive days (13 to 16 days after the tumor inoculation). The administration of azacitidine was performed once a day for 5 consecutive days (6 to 10 days after the tumor inoculation) from the date of grouping (6 days after the tumor inoculation). The major axis (mm) and minor axis (mm) of tumor were measured over time using an electronic digital caliper. Tumor growth inhibition % (TGI %) on the date of assessment (17 days after the tumor inoculation) calculated according to calculation formula (4) shown below was used in evaluation. Also, the body weights were measured over time using an automatic balance for small animals, and body weight change % was calculated according to calculation formula (5) shown below to study the influence of drug administration on the body weights. In addition, the results of the last body weight measurement were used in dose calculation.
# (§3) Body weight change (%)=Average body weight change % of the individuals (5)
# (§4) Body weight change % of each individual=[…]
# (§5) BWn: Body weight on day n
# (§6) BWs: Body weight on the start day of administration
# [3] = test system: human acute myeloid leukemia cell line MOLM-13; assay: In vivo effect of combined use of Compound A and decitabine on subcutaneous MOLM-13 tumors in NOD-SCID mice (Test Example 2); conditions: for TGI (%): 17 days after tumor inoculation
# Method: as §1, with “old). […] For a combined use group, 25 mg/kg or 50 mg/kg Compound A and 1 mg/kg or 50 mg/kg decitabine were administered sequentially.” for “old).”
# [4] = Body weight change of MOLM-13 tumor-bearing NOD-SCID mice, Compound A and decitabine (Test Example 2); type: in vivo, mouse
# Method: as §2, with “the mice. 1 mg/kg or” for “the mice. 2.5 mg/kg or”, “mg/kg or 50 mg/kg decitabine” for “mg/kg or 4 mg/kg azacitidine”, “50 mg/kg decitabine was intravenously” for “4 mg/kg azacitidine was intravenously”, “A and 1 mg/kg or” for “A and 2.5 mg/kg or”, “50 mg/kg decitabine were administered” for “4 mg/kg azacitidine were administered”, “administration of decitabine to the 50 mg/kg group was performed at the date of grouping (6 days after the tumor inoculation), and the administration thereof to the 1 mg/kg group was performed” for “administration of azacitidine was performed”
# as §3, §4, §5, §6
# [5] = azacitidine 4 mg/kg iv, day 6 after tumor inoculation
# [6] = azacitidine 4 mg/kg iv, day 8 after tumor inoculation
# [7] = azacitidine 4 mg/kg iv, day 10 after tumor inoculation
# [8] = azacitidine 4 mg/kg iv, day 13 after tumor inoculation
# [9] = azacitidine 4 mg/kg iv, day 15 after tumor inoculation
# [10] = azacitidine 4 mg/kg iv, day 17 after tumor inoculation
# [11] = Compound A 25 mg/kg oral, day 6 after tumor inoculation
# [12] = Compound A 25 mg/kg oral, day 8 after tumor inoculation
# [13] = Compound A 25 mg/kg oral, day 10 after tumor inoculation
# [14] = Compound A 25 mg/kg oral, day 13 after tumor inoculation
# [15] = Compound A 25 mg/kg oral, day 15 after tumor inoculation
# [16] = Compound A 25 mg/kg oral, day 17 after tumor inoculation
# [17] = Compound A 50 mg/kg oral, day 6 after tumor inoculation
# [18] = Compound A 50 mg/kg oral, day 8 after tumor inoculation
# [19] = Compound A 50 mg/kg oral, day 10 after tumor inoculation
# [20] = Compound A 50 mg/kg oral, day 13 after tumor inoculation
# [21] = Compound A 50 mg/kg oral, day 15 after tumor inoculation
# [22] = Compound A 50 mg/kg oral, day 17 after tumor inoculation
# [23] = decitabine 1 mg/kg iv, day 6 after tumor inoculation
# [24] = decitabine 1 mg/kg iv, day 8 after tumor inoculation
# [25] = decitabine 1 mg/kg iv, day 10 after tumor inoculation
# [26] = decitabine 1 mg/kg iv, day 13 after tumor inoculation
# [27] = decitabine 1 mg/kg iv, day 15 after tumor inoculation
# [28] = decitabine 1 mg/kg iv, day 17 after tumor inoculation
# [29] = decitabine 50 mg/kg iv, day 6 after tumor inoculation
# [30] = decitabine 50 mg/kg iv, day 8 after tumor inoculation
# [31] = decitabine 50 mg/kg iv, day 10 after tumor inoculation
# [32] = decitabine 50 mg/kg iv, day 13 after tumor inoculation
# [33] = decitabine 50 mg/kg iv, day 15 after tumor inoculation
# [34] = decitabine 50 mg/kg iv, day 17 after tumor inoculation
smiles,measurement,setting,value
"Nc1ncn([C@@H]2O[C@H](CO)[C@@H](O)[C@H]2O)c(=O)n1 [Azacitidine, 4-amino-1-β-D-ribofuranosyl-1,3,5-triazin-2(1H)-one, reference compound]",TGI (%),[1]; azacitidine 4 mg/kg iv,28%
same,"Estimated tumor volume, average",[1]; [5],115 mm^3
same,"Estimated tumor volume, average",[1]; [6],226 mm^3
same,"Estimated tumor volume, average",[1]; [7],334 mm^3
same,"Estimated tumor volume, average",[1]; [8],637 mm^3
same,"Estimated tumor volume, average",[1]; [9],1359 mm^3
same,"Estimated tumor volume, average",[1]; [10],1855 mm^3
same,"Body weight change (%), average",[2]; [5],0.0%
same,"Body weight change (%), average",[2]; [6],−0.2%
same,"Body weight change (%), average",[2]; [7],−0.4%
same,"Body weight change (%), average",[2]; [8],5.4%
same,"Body weight change (%), average",[2]; [9],8.8%
same,"Body weight change (%), average",[2]; [10],12.1%
"CC1(C)CCC2(CC1)N[C@@H](C(=O)N[C@@H]1CC[C@@H](C(N)=O)OC1)[C@H](c1ccnc(Cl)c1F)[C@]21C(=O)Nc2cc(Cl)ccc21.Cc1ccc(S(=O)(=O)O)cc1 [Compound A, (3′R,4′S,5′R)—N-[(3R,6S)-6-carbamoyltetrahydro-2H-pyran-3-yl]-6″-chloro-4′-(2-chloro-3-fluoropyridin-4-yl)-4,4-dimethyl-2″-oxo-1″,2″-dihydrodispiro[cyclohexane-1,2′-pyrrolidine-3′,3″-indole]-5′-carboxamide p-toluenesulfonate]",TGI (%),[1]; Compound A 25 mg/kg oral,34%
same,"Estimated tumor volume, average",[1]; [11],118 mm^3
same,"Estimated tumor volume, average",[1]; [12],269 mm^3
same,"Estimated tumor volume, average",[1]; [13],418 mm^3
same,"Estimated tumor volume, average",[1]; [14],834 mm^3
same,"Estimated tumor volume, average",[1]; [15],1346 mm^3
same,"Estimated tumor volume, average",[1]; [16],1697 mm^3
same,TGI (%),[1]; Compound A 50 mg/kg oral,72%
same,"Estimated tumor volume, average",[1]; [17],116 mm^3
same,"Estimated tumor volume, average",[1]; [18],180 mm^3
same,"Estimated tumor volume, average",[1]; [19],197 mm^3
same,"Estimated tumor volume, average",[1]; [20],364 mm^3
same,"Estimated tumor volume, average",[1]; [21],545 mm^3
same,"Estimated tumor volume, average",[1]; [22],721 mm^3
same,"Body weight change (%), average",[2]; [11],0.0%
same,"Body weight change (%), average",[2]; [12],2.5%
same,"Body weight change (%), average",[2]; [13],3.7%
same,"Body weight change (%), average",[2]; [14],9.0%
same,"Body weight change (%), average",[2]; [15],10.8%
same,"Body weight change (%), average",[2]; [16],13.8%
same,"Body weight change (%), average",[2]; [17],0.0%
same,"Body weight change (%), average",[2]; [18],1.7%
same,"Body weight change (%), average",[2]; [19],4.4%
same,"Body weight change (%), average",[2]; [20],8.7%
same,"Body weight change (%), average",[2]; [21],8.9%
same,"Body weight change (%), average",[2]; [22],10.7%
same,TGI (%),[3]; Compound A 25 mg/kg oral,22%
same,"Estimated tumor volume, average",[3]; [11],147 mm^3
same,"Estimated tumor volume, average",[3]; [12],257 mm^3
same,"Estimated tumor volume, average",[3]; [13],388 mm^3
same,"Estimated tumor volume, average",[3]; [14],876 mm^3
same,"Estimated tumor volume, average",[3]; [15],1213 mm^3
same,"Estimated tumor volume, average",[3]; [16],1825 mm^3
same,TGI (%),[3]; Compound A 50 mg/kg oral,76%
same,"Estimated tumor volume, average",[3]; [17],143 mm^3
same,"Estimated tumor volume, average",[3]; [18],227 mm^3
same,"Estimated tumor volume, average",[3]; [19],170 mm^3
same,"Estimated tumor volume, average",[3]; [20],310 mm^3
same,"Estimated tumor volume, average",[3]; [21],407 mm^3
same,"Estimated tumor volume, average",[3]; [22],554 mm^3
same,"Body weight change (%), average",[4]; [11],0.0%
same,"Body weight change (%), average",[4]; [12],2.3%
same,"Body weight change (%), average",[4]; [13],2.0%
same,"Body weight change (%), average",[4]; [14],8.0%
same,"Body weight change (%), average",[4]; [15],8.5%
same,"Body weight change (%), average",[4]; [16],10.3%
same,"Body weight change (%), average",[4]; [17],0.0%
same,"Body weight change (%), average",[4]; [18],1.7%
same,"Body weight change (%), average",[4]; [19],2.4%
same,"Body weight change (%), average",[4]; [20],7.4%
same,"Body weight change (%), average",[4]; [21],6.2%
same,"Body weight change (%), average",[4]; [22],7.2%
"Nc1ncn([C@H]2C[C@H](O)[C@@H](CO)O2)c(=O)n1 [Decitabine, 4-amino-1-(2-deoxy-β-D-erythro-pentofuranosyl)-1,3,5-triazin-2(1H)-one, reference compound]",TGI (%),[3]; decitabine 1 mg/kg iv,38%
same,"Estimated tumor volume, average",[3]; [23],144 mm^3
same,"Estimated tumor volume, average",[3]; [24],228 mm^3
same,"Estimated tumor volume, average",[3]; [25],327 mm^3
same,"Estimated tumor volume, average",[3]; [26],585 mm^3
same,"Estimated tumor volume, average",[3]; [27],901 mm^3
same,"Estimated tumor volume, average",[3]; [28],1441 mm^3
same,TGI (%),[3]; decitabine 50 mg/kg iv,14%
same,"Estimated tumor volume, average",[3]; [29],145 mm^3
same,"Estimated tumor volume, average",[3]; [30],206 mm^3
same,"Estimated tumor volume, average",[3]; [31],365 mm^3
same,"Estimated tumor volume, average",[3]; [32],732 mm^3
same,"Estimated tumor volume, average",[3]; [33],1175 mm^3
same,"Estimated tumor volume, average",[3]; [34],1997 mm^3
same,"Body weight change (%), average",[4]; [23],0.0%
same,"Body weight change (%), average",[4]; [24],2.6%
same,"Body weight change (%), average",[4]; [25],2.5%
same,"Body weight change (%), average",[4]; [26],7.8%
same,"Body weight change (%), average",[4]; [27],11.5%
same,"Body weight change (%), average",[4]; [28],14.3%
same,"Body weight change (%), average",[4]; [29],0.0%
same,"Body weight change (%), average",[4]; [30],3.7%
same,"Body weight change (%), average",[4]; [31],6.0%
same,"Body weight change (%), average",[4]; [32],9.6%
same,"Body weight change (%), average",[4]; [33],10.3%
same,"Body weight change (%), average",[4]; [34],14.6%
